This is an account of results in publication PMC7702303, “Biochemical and transcript level differences between the three human phosphofructokinases show optimisation of each isoform for specific metabolic niches” (Biochemical Journal, 2020).

Where two headings read alike, the source gives them in different places. Bounds are passed on as bounds.

In one assay the test system is PFK. Also on record: key to Effect (activator or inhibitor of PFK): “+” indicates activator; “-“ indicates inhibitor. Particulars: cited from earlier work; for IC50 or AC50 (activator): unit inferred, ref Moreno-Sanchez et al., 2012; for Effect (activator or inhibitor of PFK): published literature, ref selected references in Supplementary Table 1.
In a further assay the target is T1, recombinant human PFK-L (Homo sapiens, UniProt P17858).
T1 construct: made in house; host or cells: PFK-deficient Saccharomyces cerevisiae
T1 sequence (P17858 1-780): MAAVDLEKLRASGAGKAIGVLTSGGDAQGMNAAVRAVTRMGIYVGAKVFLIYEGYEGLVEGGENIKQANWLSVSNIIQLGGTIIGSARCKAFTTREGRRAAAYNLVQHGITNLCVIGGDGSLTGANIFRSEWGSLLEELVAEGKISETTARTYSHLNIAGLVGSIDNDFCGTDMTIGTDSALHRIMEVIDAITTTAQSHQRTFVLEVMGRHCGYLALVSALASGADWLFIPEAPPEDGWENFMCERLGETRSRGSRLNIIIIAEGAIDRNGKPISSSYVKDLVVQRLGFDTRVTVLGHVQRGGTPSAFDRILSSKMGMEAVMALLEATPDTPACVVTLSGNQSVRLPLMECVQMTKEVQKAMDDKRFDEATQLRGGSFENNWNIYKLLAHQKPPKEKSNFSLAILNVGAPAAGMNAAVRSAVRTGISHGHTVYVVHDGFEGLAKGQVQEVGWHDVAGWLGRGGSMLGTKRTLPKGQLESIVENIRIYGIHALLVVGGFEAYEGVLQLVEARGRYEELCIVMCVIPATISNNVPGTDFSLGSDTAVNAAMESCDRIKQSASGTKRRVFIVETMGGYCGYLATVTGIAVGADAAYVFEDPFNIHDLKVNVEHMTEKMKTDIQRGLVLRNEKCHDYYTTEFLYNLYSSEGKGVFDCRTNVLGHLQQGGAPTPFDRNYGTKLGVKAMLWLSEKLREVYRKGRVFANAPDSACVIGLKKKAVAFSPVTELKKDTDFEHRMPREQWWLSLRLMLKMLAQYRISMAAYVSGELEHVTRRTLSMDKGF
Put plainly: ALDO-TIM-G3PDH enzyme-linked kinetic assay, PFK-L. The format is biochemical. Particulars: for K0.5F6P + modulator / VmaxF6P + modulator: ATP 0.5mM; for K0.5F6P + modulator / VmaxF6P + modulator / K0.5ATP + modulator / VmaxATP + modulator: N=3, mean (SD); for K0.5ATP + modulator / VmaxATP + modulator: F6P 4mM. An outline of the steps: (§1)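 Recombinant human PFK isoforms, yeast-expressed, assayed at 25 °C, pH 7.4 (50 mM TEA, 100 mM KCl, 10 mM MgCl2) by aldolase-TIM-G3PDH coupling, following NADH oxidation at A340 over 10 min. ATP titrations used 4 mM F6P final; F6P titrations used 0.5 mM ATP final. Initial rates fitted to allosteric sigmoidal models.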

The target of a further assay is T2, recombinant human PFK-P (Homo sapiens, UniProt Q01813).
T2 construct: made in house; host or cells: PFK-deficient Saccharomyces cerevisiae
T2 sequence (Q01813 1-784): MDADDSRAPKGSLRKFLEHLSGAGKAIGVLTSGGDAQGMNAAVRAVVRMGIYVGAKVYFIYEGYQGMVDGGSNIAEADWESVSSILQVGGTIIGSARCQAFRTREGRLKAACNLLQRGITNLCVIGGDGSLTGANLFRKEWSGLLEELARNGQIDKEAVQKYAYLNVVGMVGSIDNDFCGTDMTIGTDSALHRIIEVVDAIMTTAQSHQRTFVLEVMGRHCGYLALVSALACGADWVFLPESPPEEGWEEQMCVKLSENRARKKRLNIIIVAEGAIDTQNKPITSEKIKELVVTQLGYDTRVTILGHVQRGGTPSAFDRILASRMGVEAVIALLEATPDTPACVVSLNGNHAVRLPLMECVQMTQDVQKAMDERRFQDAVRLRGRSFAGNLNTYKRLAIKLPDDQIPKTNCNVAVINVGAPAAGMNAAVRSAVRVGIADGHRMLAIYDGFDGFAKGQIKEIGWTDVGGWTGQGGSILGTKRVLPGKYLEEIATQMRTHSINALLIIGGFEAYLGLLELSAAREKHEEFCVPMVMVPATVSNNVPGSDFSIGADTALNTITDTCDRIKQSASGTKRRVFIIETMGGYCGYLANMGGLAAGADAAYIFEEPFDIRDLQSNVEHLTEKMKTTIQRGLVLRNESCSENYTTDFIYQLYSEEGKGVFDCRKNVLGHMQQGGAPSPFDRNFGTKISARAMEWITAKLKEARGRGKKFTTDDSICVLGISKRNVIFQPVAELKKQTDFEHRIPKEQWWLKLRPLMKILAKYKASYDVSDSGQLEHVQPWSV
Kind of assay: ALDO-TIM-G3PDH enzyme-linked kinetic assay, PFK-P. It is filed as biochemical. Particulars: for K0.5F6P + modulator / VmaxF6P + modulator: ATP 0.5mM; for K0.5F6P + modulator / VmaxF6P + modulator / K0.5ATP + modulator / VmaxATP + modulator: N=3, mean (SD); for K0.5ATP + modulator / VmaxATP + modulator: F6P 4mM. An outline of the steps: as §1

What is called AC50 is the midpoint of the concentration-response curve, whichever way the signal moves. As for `O=P(O)(O)OC[C@H]1O[C@@](CO)(OP(=O)(O)O)[C@@H](O)[C@@H]1O` [F26BP, fructose 2,6-bisphosphate], the IC50 or AC50 (activator) with PFK (first of three values marked *) is 530 nM; with PFK (second of three values marked *), 4600 nM; with PFK (third of three values marked *), 580 nM. Further, the “Effect (activator or inhibitor of PFK)” value in the assay on PFK is on record as “+”. In addition, the “effect on PFK activity, in words” value on recombinant human PFK-L (PFK-L) and on recombinant human PFK-P was “strongly activated” each time. For the same molecule, on recombinant human PFK-L (PFK-L vs PFK-P), the “decrease in AC50^F26BP for PFK-L compared with PFK-P” value is on record as over 50 fold. In addition, the “allosteric constant K0.5^ATP+F26BP/K0.5^ATP” value at recombinant human PFK-L (PFK-L, ATP titration) stood at 0.92; on recombinant human PFK-P (ATP titration) it was 0.54. For the same molecule, the AC50 on recombinant human PFK-L (PFK-L, activation, read-out: AC50^F26BP) was found to be 170 nM; at recombinant human PFK-P (activation, read-out: AC50^F26BP), 9130 nM. Besides, the “change in kcat^ATP/K0.5^ATP compared with control PFK without modulator” value on recombinant human PFK-L (PFK-L, modulator 10 µM) is “+6.5%”; on recombinant human PFK-P (modulator 10 µM), “+88%”. Also, the “change in kcat^F6P/K0.5^F6P compared with control PFK without modulator” value is “+148%” at recombinant human PFK-L (PFK-L, modulator 10 µM) and “+111%” on recombinant human PFK-P (modulator 10 µM). The “K0.5F6P + modulator” value on recombinant human PFK-L (PFK-L, modulator 10 µM) was 698 (105) M; at recombinant human PFK-P (modulator 10 µM) it was 2143 (132) M. The “VmaxF6P + modulator” value on recombinant human PFK-L (PFK-L, modulator 10 µM) was 5.07 (0.41) moles/min/mg; at recombinant human PFK-P (modulator 10 µM) it was 2.45 (0.18) moles/min/mg. Further, the “K0.5ATP + modulator” value at recombinant human PFK-L (PFK-L, modulator 10 µM) is recorded as 139.4 (12.3) M; at recombinant human PFK-P (modulator 10 µM) it was 176.8 (33.8) M. Moreover, the “VmaxATP + modulator” value is on record as 38.57 (1.23) moles/min/mg on recombinant human PFK-L (PFK-L, modulator 10 µM) and 31.26 (1.96) moles/min/mg on recombinant human PFK-P (modulator 10 µM).
Take `C=C(OP(=O)(O)O)C(=O)O` [PEP, phosphoenolpyruvate]: the “Effect (activator or inhibitor of PFK)” value in the assay on PFK is “-”. Moreover, at recombinant human PFK-L (PFK-L, modulator 1100 µM), the “change in kcat^ATP/K0.5^ATP compared with control PFK without modulator” value is “+1%”, the “change in kcat^F6P/K0.5^F6P compared with control PFK without modulator” value is reported as “+92%”, the “K0.5F6P + modulator” value is given as 952.8 (137.7) M and the “VmaxF6P + modulator” value is on record as 5.36 (0.49) moles/min/mg. On recombinant human PFK-L (PFK-L, modulator 1100 µM), the “K0.5ATP + modulator” value is reported as 148.7 (18.6) M and the “VmaxATP + modulator” value was 34.91 (1.59) moles/min/mg. Moreover, on recombinant human PFK-P (modulator 1100 µM), the “change in kcat^ATP/K0.5^ATP compared with control PFK without modulator” value is −40%, the “change in kcat^F6P/K0.5^F6P compared with control PFK without modulator” value is “+9%”, the “K0.5F6P + modulator” value is listed as 1378 (96) M and the “VmaxF6P + modulator” value was 0.81 (0.04) moles/min/mg. Also, on recombinant human PFK-P (modulator 1100 µM), the “K0.5ATP + modulator” value is 352.3 (133.2) M and the “VmaxATP + modulator” value is on record as 23.07 (2.40) moles/min/mg.
